Assay results from US20260365628A1, “SUBSTITUTED 3,4-DIHYDROQUINOLINONE INHIBITORS OF TSHR” (Septerna, Inc., priority 2022, published 2026).

Molecular target: T1, hTSHR (Homo sapiens, UniProt P16473)
T1 construct: expressed in transfected cells
Assay: hTSHR TR-FRET cAMP Assay (inhibition of M22-stimulated cAMP production)
Assay type: cell-based
Settings: Expi293F Inducible cells stably expressing hTSHR; cAMP HTRF; stimulated with EC80 of anti-TSHR antibody M22; 15 min compound preincubation, 30 min at 37° C.; read-out: Activity (IC50 bins)
Procedure, shortened: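 Readout was a cAMP HTRF ratio of 655/620 nm after lysis, scaled between the EC80 M22 signal (0% inhibition) and no-agonist vehicle (100%). Frozen induced Expi293F-hTSHR cells saw test compounds (0.5% DMSO) for 15 min at 37 °C before 30 min of M22 stimulation at EC80.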

T1 sequence (P16473 21-764): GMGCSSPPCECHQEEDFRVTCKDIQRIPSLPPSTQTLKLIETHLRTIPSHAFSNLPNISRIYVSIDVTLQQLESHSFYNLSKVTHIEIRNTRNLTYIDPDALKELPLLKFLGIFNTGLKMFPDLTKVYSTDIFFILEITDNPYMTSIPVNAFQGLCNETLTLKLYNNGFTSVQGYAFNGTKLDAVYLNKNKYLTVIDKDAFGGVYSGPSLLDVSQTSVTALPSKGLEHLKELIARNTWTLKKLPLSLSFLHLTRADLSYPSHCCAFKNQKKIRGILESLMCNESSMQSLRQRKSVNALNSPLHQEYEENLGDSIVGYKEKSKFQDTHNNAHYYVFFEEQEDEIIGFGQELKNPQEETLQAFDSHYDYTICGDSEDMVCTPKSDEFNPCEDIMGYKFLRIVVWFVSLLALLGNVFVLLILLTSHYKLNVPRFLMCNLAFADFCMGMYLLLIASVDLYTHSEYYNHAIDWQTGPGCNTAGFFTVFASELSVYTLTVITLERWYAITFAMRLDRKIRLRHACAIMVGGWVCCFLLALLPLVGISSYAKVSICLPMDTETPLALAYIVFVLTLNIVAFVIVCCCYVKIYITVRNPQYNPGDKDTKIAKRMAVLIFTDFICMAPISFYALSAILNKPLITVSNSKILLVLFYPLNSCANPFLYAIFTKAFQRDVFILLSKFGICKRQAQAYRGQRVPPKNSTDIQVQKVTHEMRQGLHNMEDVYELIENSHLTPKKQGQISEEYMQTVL

IC50 [nM]	Structure (SMILES)
100 to 1000	C[C@H]1Oc2cc(NC(=O)NC(C)(C)C)ccc2N(Cc2cc(C(F)(F)F)ccn2)C1=O [Example 162, (R)-1-(tert-butyl)-3-(2-methyl-3-oxo-4-((4-(trifluoro-methyl)pyridin-2-yl)methyl)-3,4-dihydro-2H-benzo [b][1,4]oxazin-7-yl)urea]
100 to 1000	C[C@H]1Oc2cc(NC(=O)NC(C)(C)C)ccc2N(Cc2ccnc(C(F)(F)F)c2)C1=O [Example 163, (R)-1-(tert-butyl)-3-(2-methyl-3-oxo-4-((2-(trifluoro-methyl)pyridin-4-yl)methyl)-3,4-dihydro-2H-benzo [b][1,4]oxazin-7-yl)urea]
100 to 1000	COc1cccc(CN2C(=O)[C@@H](C)Oc3cc(NC(=O)NC(C)(C)C)ccc32)c1 [Example 164, (R)-1-(tert-butyl)-3-(4-(3-methoxy-benzyl)-2-methyl-3-oxo-3,4-dihydro-2H-benzo [b][1,4]oxazin-7-yl)urea]
100 to 1000	C[C@H]1Oc2cc(NC(=O)NC(C)(C)C)ccc2N(Cc2csc(C(F)(F)F)n2)C1=O [Example 165, (R)-1-(tert-butyl)-3-(2-methyl-3-oxo-4-((2-(trifluoro-methyl)thiazol-4-yl)methyl)-3,4-dihydro-2H-benzo [b][1,4]oxazin-7-yl)urea]
< 100	C[C@H]1Oc2cc(NC(=O)NC(C)(C)C)ccc2N(Cc2cccc(OC(F)(F)F)n2)C1=O [Example 166, (R)-1-(tert-butyl)-3-(2-methyl-3-oxo-4-((6-(trifluoro-methoxy)pyridin-2-yl)methyl)-3,4-dihydro-2H-benzo [b][1,4]oxazin-7-yl)urea]
100 to 1000	C[C@H]1Oc2cc(NC(=O)NC(C)(C)C)ccc2N(Cc2ccnc(C(F)(F)F)n2)C1=O [Example 167, (R)-1-(tert-butyl)-3-(2-methyl-3-oxo-4-((2-(trifluoro-methyl)pyrimidin-4-yl)methyl)-3,4-dihydro-2H-benzo [b][1,4]oxazin-7-yl)urea]
100 to 1000	C[C@H]1Oc2cc(NC(=O)NC(C)(C)C)ccc2N(Cc2nc(C(F)(F)F)cs2)C1=O [Example 168, (R)-1-(tert-butyl)-3-(2-methyl-3-oxo-4-((4-(trifluoro-methyl)thiazol-2-yl)methyl)-3,4-dihydro-2H-benzo [b][1,4]oxazin-7-yl)urea]
100 to 1000	C[C@H]1Oc2cc(NC(=O)NC(C)(C)C)ccc2N(Cc2cncc(C(F)(F)F)n2)C1=O [Example 169, (R)-1-(tert-butyl)-3-(2-methyl-3-oxo-4-((6-(trifluoro-methyl)pyrazin-2-yl)methyl)-3,4-dihydro-2H-benzo [b][1,4]oxazin-7-yl)urea]
100 to 1000	C[C@H]1Oc2cc(NC(=O)NC(C)(C)C)ccc2N(Cc2nccc(C(F)(F)F)n2)C1=O [Example 170, (R)-1-(tert-butyl)-3-(2-methyl-3-oxo-4-((4-(trifluoro-methyl)pyrimidin-2-yl)methyl)-3,4-dihydro-2H-benzo [b][1,4]oxazin-7-yl)urea]
100 to 1000	C[C@H]1Oc2cc(NC(=O)NC(C)(C)C)ccc2N(Cc2cncc(C(F)(F)F)c2)C1=O [Example 171, (R)-1-(tert-butyl)-3-(2-methyl-3-oxo-4-((5-(trifluoro-methyl)pyridin-3-yl)methyl)-3,4-dihydro-2H-benzo [b][1,4]oxazin-7-yl)urea]
< 100	C[C@H]1Oc2cc(NC(=O)NC(C)(C)C)ccc2N(Cc2cccc(C(O)C(F)(F)F)c2)C1=O (stereo partly drawn) [Example 172, 1-(tert-butyl)-3-((2R)-2-methyl-3-oxo-4-(3-(2,2,2-trifluoro-1-hydroxy-ethyl)benzyl)-3,4-dihydro-2H-benzo [b][1,4]oxazin-7-yl)urea]
100 to 1000	C[C@H]1Oc2cc(NC(=O)NC(C)(C)C)ccc2N(Cc2cccc(C(O)C(F)(F)F)n2)C1=O (stereo partly drawn) [Example 173, 1-(tert-butyl)-3-((2R)-2-methyl-3-oxo-4-((6-(2,2,2-trifluoro-1-hydroxy-ethyl)pyridin-2-yl)methyl)-3,4-dihydro-2H-benzo [b][1,4]oxazin-7-yl)urea]
100 to 1000	C[C@H]1Oc2cc(NC(=O)NC(C)(C)C)ccc2N(Cc2cccc([C@@H](O)C(F)(F)F)c2)C1=O [Example 174, 1-(tert-butyl)-3-((R)-2-methyl-3-oxo-4-(3-((R)-2,2,2-trifluoro-1-hydroxyethyl)benzyl)-3,4-dihydro-2H-benzo [b][1,4]oxazin-7-yl)urea]
100 to 1000	C[C@H]1Oc2cc(NC(=O)NC(C)(C)C)ccc2N(Cc2cccc([C@H](O)C(F)(F)F)c2)C1=O [Example 175, 1-(tert-butyl)-3-((R)-2-methyl-3-oxo-4-(3-((S)-2,2,2-trifluoro-1-hydroxyethyl)benzyl)-3,4-dihydro-2H-benzo [b][1,4]oxazin-7-yl)urea]
< 100	C[C@H]1Oc2cc(NC(=O)NC(C)(C)C)ccc2N(Cc2cc(Cl)ccc2Cl)C1=O [Example 176, (R)-1-(tert-butyl)-3-(4-(2,5-dichloro-benzyl)-2-methyl-3-oxo-3,4-dihydro-2H-benzo [b][1,4]oxazin-7-yl)urea]
< 100	C[C@H]1Oc2cc(NC(=O)NC(C)(C)C)ccc2N(Cc2cc(F)ccc2F)C1=O [Example 177, (R)-1-(tert-butyl)-3-(4-(2,5-difluoro-benzyl)-2-methyl-3-oxo-3,4-dihydro-2H-benzo [b][1,4]oxazin-7-yl)urea]

IC50 [nM]	Structure (SMILES)
100 to 1000	C[C@H]1Oc2cc(NC(=O)NC(C)(C)C)ccc2N(Cc2ccccc2Cl)C1=O [Example 178, (R)-1-(tert-butyl)-3-(4-(2-chloro-benzyl)-2-methyl-3-oxo-3,4-dihydro-2H-benzo [b][1,4]oxazin-7-yl)urea]
100 to 1000	Cc1nc2cc(NC(=O)NC(C)(C)C)ccc2n([C@@H](C)c2ccccc2)c1=O [Example 179, 3-tert-butyl-1-{3-methyl-2-oxo-1-[(1S)-1-phenylethyl]quinoxalin-6-yl}urea]
100 to 1000	Cc1nc2cc(NC(=O)NC(C)(C)C)ccc2n([C@@H](C)c2cccc(Cl)c2)c1=O [Example 180, (S)-1-(tert-butyl)-3-(1-(1-(3-chlorophenyl)ethyl)-3-methyl-2-oxo-1,2-dihydroquinoxalin-6-yl)urea]
100 to 1000	Cc1nc2cc(NC(=O)NC(C)(C)C)ccc2n([C@@H](C)c2cccc(C(F)(F)F)c2)c1=O [Example 181, (S)-1-(tert-butyl)-3-(3-methyl-2-oxo-1-(1-(3-(trifluoromethyl)phenyl)ethyl)-1,2-dihydroquinoxalin-6-yl)urea]
100 to 1000	Cc1nc2cc(NC(=O)NC(C)(C)C)ccc2n([C@@H](C)c2cccc(OC(F)(F)F)c2)c1=O [Example 182, (S)-1-(tert-butyl)-3-(3-methyl-2-oxo-1-(1-(3-(trifluoromethoxy)phenyl)ethyl)-1,2-dihydroquinoxalin-6-yl)urea]
< 100	C[C@H]1Oc2cc(NC(=O)NC(C)(C)C)ccc2N([C@@H](C)c2cccc(Cl)c2)C1=O [Example 183, 1-(tert-butyl)-3-((R)-4-((S)-1-(3-chlorophenyl)ethyl)-2-methyl-3-oxo-3,4-dihydro-2H-benzo[b][1,4]oxazin-7-yl)urea]
100 to 1000	C[C@H]1Oc2cc(NC(=O)NC(C)(C)C)ccc2N([C@@H](C)c2cccc(OC(F)(F)F)c2)C1=O [Example 184, 1-(tert-butyl)-3-((R)-2-methyl-3-oxo-4-((S)-1-(3-(trifluoromethoxy)phenyl)ethyl)-3,4-dihydro-2H-benzo[b][1,4]oxazin-7-yl)urea]
< 100	C[C@H]1Oc2cc(NC(=O)NC(C)(C)C)ccc2N([C@@H](C)c2cccc(C(F)F)c2)C1=O [Example 185, 1-(tert-butyl)-3-((R)-4-((S)-1-(3-(difluoromethyl)phenyl)ethyl)-2-methyl-3-oxo-3,4-dihydro-2H-benzo[b][1,4]oxazin-7-yl)urea]
< 100	C[C@H]1Oc2cc(NC(=O)NC(C)(C)C)ccc2N([C@@H](C)c2cccc(C(F)(F)F)n2)C1=O [Example 186, 1-(tert-butyl)-3-((R)-2-methyl-3-oxo-4-((S)-1-(6-(trifluoromethyl)pyridin-2-yl)ethyl)-3,4-dihydro-2H-benzo[b][1,4]oxazin-7-yl)urea]
100 to 1000	COc1cccc([C@H](C)N2C(=O)[C@@H](C)Oc3cc(NC(=O)NC(C)(C)C)ccc32)c1 [Example 187, 1-(tert-butyl)-3-((R)-4-((S)-1-(3-methoxyphenyl)ethyl)-2-methyl-3-oxo-3,4-dihydro-2H-benzo[b][1,4]oxazin-7-yl)urea]
< 100	C[C@H]1Oc2cc(NC(=O)NC(C)(C)C)ccc2N([C@@H](C)c2cc(F)ccc2F)C1=O [Example 188, 1-(tert-butyl)-3-((R)-4-((S)-1-(2,5-difluorophenyl)ethyl)-2-methyl-3-oxo-3,4-dihydro-2H-benzo[b][1,4]oxazin-7-yl)urea]
< 100	C[C@H]1Oc2cc(NC(=O)NC(C)(C)C)ccc2N([C@@H](C)c2ccccc2Cl)C1=O [Example 189, 1-(tert-butyl)-3-((R)-4-((S)-1-(2-chlorophenyl)ethyl)-2-methyl-3-oxo-3,4-dihydro-2H-benzo[b][1,4]oxazin-7-yl)urea]
100 to 1000	C[C@H]1Oc2cc(NC(=O)NC(C)(C)C)ccc2N([C@@H](C)c2cc(Cl)ccc2Cl)C1=O [Example 190, 1-(tert-butyl)-3-((R)-4-((S)-1-(2,5-dichlorophenyl)ethyl)-2-methyl-3-oxo-3,4-dihydro-2H-benzo[b][1,4]oxazin-7-yl)urea]
100 to 1000	CC1(NC(=O)Nc2ccc3c(c2)ncc(=O)n3Cc2ccccc2)CCC1 [Example 191, 1-(1-benzyl-2-oxo-1,2-dihydroquinoxalin-6-yl)-3-(1-methylcyclobutyl)urea]
> 1000	CC1(C)CN(C(=O)Nc2ccc3c(c2)ncc(=O)n3Cc2ccccc2)C1 [Example 192, N-(1-benzyl-2-oxo-1,2-dihydroquinoxalin-6-yl)-3,3-dimethylazetidine-1-carboxamide]
100 to 1000	CC1(NC(=O)Nc2ccc3c(c2)ncc(=O)n3Cc2ccccc2)CCCC1 [Example 193, 1-(1-benzyl-2-oxo-1,2-dihydroquinoxalin-6-yl)-3-(1-methylcyclopentyl) urea]
